Assay results taken from ChEMBL document CHEMBL1140763, “Design, synthesis, and in vitro evaluation of new naphthylnitrobutadienes with potential antiproliferative activity: toward a structure/activity correlation” (Bioorg Med Chem, 2008).
One block for each molecule: values may come before it.

Assays:
A549 [1] = assay: Cell cycle arrest in human A549 cells assessed as accumulation at S phase at 6.25 uM after 48 hrs; format: functional
A549 [2] = assay: Cell cycle arrest in human A549 cells assessed as accumulation at G2/M phase at 6.25 uM after 48 hrs; format: functional
Jurkat [3] = assay: Cytotoxicity against human Jurkat cells after 72 hrs by Trypan blue assay; format: functional
A2780 [4] = assay: Induction of apoptosis in human A2780 cells by DAPI assay; format: functional
PA-1 [5] = assay: Cytotoxicity against human PA1 cells after 72 hrs by Trypan blue assay; format: functional
PA-1 [6] = assay: Antiproliferative activity against human PA1 cells by MTT assay; format: functional, cell-based
P388 [7] = assay: Effect on interstrand cross linking in DNA in mouse P388 cells at 1 uM; format: functional
Jurkat [8] = assay: Cell cycle arrest in human Jurkat cells assessed as accumulation at S phase at 1.56 uM after 48 hrs; format: functional
A549 [9] = assay: Cell cycle arrest in human A549 cells assessed as accumulation at S phase at 1.56 uM after 48 hrs; format: functional
MDA-MB-231 [10] = assay: Cytotoxicity against human MDA-MB-231 cells after 72 hrs by Trypan blue assay; format: functional
[11] = Cytotoxicity against human H1299 cells after 72 hrs by Trypan blue assay; format: functional, NCI-H1299
A549 [12] = assay: Cell cycle arrest in human A549 cells assessed as accumulation at S phase at 25 uM after 48 hrs; format: functional
HCT-8 [13] = assay: Cytotoxicity against human HCT8 cells after 72 hrs by Trypan blue assay; format: functional
HCT-8 [14] = assay: Induction of apoptosis in human HCT8 cells by DAPI assay; format: functional
MDA-MB-231 [15] = assay: Antiproliferative activity against human MDA-MB-231 cells by MTT assay; format: functional, cell-based
P388 [16] = assay: Cytotoxicity against mouse P388 cells after 72 hrs by Trypan blue assay; format: functional
MDA-MB-231 [17] = assay: Stimulation of p53 oncoprotein expression in human MDA-MB-231 cells at 0.9 uM; format: functional
HGC-27 [18] = assay: Antiproliferative activity against human HGC27 cells by MTT assay; format: functional, cell-based
Jurkat [19] = assay: Cell cycle arrest in human Jurkat cells assessed as accumulation at G2/M phase at 6.25 uM after 48 hrs; format: functional
Jurkat [20] = assay: Induction of apoptosis in human Jurkat cells by DAPI assay; format: functional
PA-1 [21] = assay: Induction of apoptosis in human PA1 cells by DAPI assay; format: functional
A2780 [22] = assay: Cytotoxicity against human A2780 cells after 72 hrs by Trypan blue assay; format: functional
Jurkat [23] = assay: Cell cycle arrest in human Jurkat cells assessed as accumulation at G0/G1 phase at 6.25 uM after 48 hrs; format: functional
[24] = Antiproliferative activity against human H1299 cells by MTT assay; format: functional, cell-based; details: NCI-H1299
P388 [25] = assay: Induction of apoptosis in mouse P388 cells by DAPI assay; format: functional
A549 [26] = assay: Stimulation of p53 oncoprotein expression in human A549 cells at 6 uM after 72 hrs; format: functional
A549 [27] = assay: Antiproliferative activity against human A549 cells by MTT assay; format: functional, cell-based
P388 [28] = assay: Antiproliferative activity against mouse P388 cells by MTT assay; format: functional, cell-based
A2780 [29] = assay: Antiproliferative activity against human A2780 cells by MTT assay; format: functional, cell-based
A549 [30] = assay: Cell cycle arrest in human A549 cells assessed as accumulation at G2/M phase at 25 uM after 48 hrs; format: functional
HGC-27 [31] = assay: Cytotoxicity against human HGC27 cells after 72 hrs by Trypan blue assay; format: functional
Jurkat [32] = assay: Antiproliferative activity against human Jurkat cells by MTT assay; format: functional, cell-based
A549 [33] = assay: Induction of apoptosis in human A549 cells by DAPI assay; format: functional
Jurkat [34] = assay: Cell cycle arrest in human Jurkat cells assessed as accumulation at G2/M phase at 25 uM after 48 hrs; format: functional
P388 [35] = assay: Effect on interstrand cross linking in DNA in mouse P388 cells at 0.1 uM; format: functional
Jurkat [36] = assay: Cell cycle arrest in human Jurkat cells assessed as accumulation at G0/G1 phase at 25 uM after 48 hrs; format: functional
HCT-8 [37] = assay: Antiproliferative activity against human HCT8 cells by MTT assay; format: functional, cell-based
A549 [38] = assay: Cell cycle arrest in human A549 cells assessed as accumulation at G0/G1 phase at 25 uM after 48 hrs; format: functional
NCI-H1299 = assay: Induction of apoptosis in human H1299 cells by DAPI assay; format: functional
HGC-27 [39] = assay: Induction of apoptosis in human HGC27 cells by DAPI assay; format: functional
MDA-MB-231 [40] = assay: Induction of apoptosis in human MDA-MB-231 cells by DAPI assay; format: functional
A549 [41] = assay: Cytotoxicity against human A549 cells after 72 hrs by Trypan blue assay; format: functional
Jurkat [42] = assay: Cell cycle arrest in human Jurkat cells assessed as accumulation at S phase at 25 uM after 48 hrs; format: functional
A549 [43] = assay: Cell cycle arrest in human A549 cells assessed as accumulation at G0/G1 phase at 6.25 uM after 48 hrs; format: functional
A549 [44] = assay: Cell cycle arrest in human A549 cells assessed as accumulation at G0/G1 phase at 1.56 uM after 48 hrs; format: functional
PA-1 [45] = assay: Stimulation of p53 oncoprotein expression in human PA1 cells at 1.6 uM; format: functional
A549 [46] = assay: Cell cycle arrest in human A549 cells assessed as accumulation at G2/M phase at 1.56 uM after 48 hrs; format: functional
Jurkat [47] = assay: Cell cycle arrest in human Jurkat cells assessed as accumulation at G0/G1 phase at 1.56 uM after 48 hrs; format: functional
Jurkat [48] = assay: Cell cycle arrest in human Jurkat cells assessed as accumulation at S phase at 6.25 uM after 48 hrs; format: functional
Jurkat [49] = assay: Cell cycle arrest in human Jurkat cells assessed as accumulation at G2/M phase at 1.56 uM after 48 hrs; format: functional

- IC50 (MDA-MB-231 [15]): 0.9 µM
- IC50 (A549 [27]): 6 µM
- IC50 (P388 [28]): 1.4 µM
- IC50 (A2780 [29]): 2.1 µM
- IC50 (Jurkat [32]): 3.2 µM
- IC50 (HCT-8 [37]): 12.7 µM
SMILES: COC(=O)/C(=C/C(=C\c1cccc2ccccc12)[N+](=O)[O-])SC
- Activity (A549 [1]): 33%
- Activity (A549 [2]): 18%
- Activity (Jurkat [3]): 67%
- Activity (A2780 [4]): 25%
- Activity (PA-1 [5]): 22%
- IC50 (PA-1 [6]): 1.6 µM
- Activity (P388 [7]): 3.5%
- Activity (Jurkat [8]): 50.3%
- Activity (A549 [9]): 36.9%
- Activity (MDA-MB-231 [10]): 16%
- Activity [11]: 14%
- Activity (A549 [12]): 22.5%
- Activity (HCT-8 [13]): 10%
- Activity (HCT-8 [14]): 5%
- Activity (P388 [16]): 75%
- Activity (MDA-MB-231 [17]): 2%
- IC50 (HGC-27 [18]): 2.1 µM
- Activity (Jurkat [19]): 20.4%
- Activity (Jurkat [20]): 14%
- Activity (PA-1 [21]): 11%
- Activity (A2780 [22]): 55%
- Activity (Jurkat [23]): 41.3%
- IC50 [24]: 2.8 µM
- Activity (P388 [25]): 27%
- Activity (A549 [26]): 2%
- Activity (A549 [30]): 36.5%
- Activity (HGC-27 [31]): 21%
- Activity (A549 [33]): 60%
- Activity (Jurkat [34]): 26.4%
- Activity (P388 [35]): 1.7%
- Activity (Jurkat [36]): 51.2%
- Activity (A549 [38]): 41.2%
- Activity (NCI-H1299): 2%
- Activity (HGC-27 [39]): 7%
- Activity (MDA-MB-231 [40]): 4%
- Activity (A549 [41]): 46%
- Activity (Jurkat [42]): 22.4%
- Activity (A549 [43]): 49%
- Activity (A549 [44]): 46.5%
- Activity (PA-1 [45]): 2%
- Activity (A549 [46]): 16.6%
- Activity (Jurkat [47]): 31.1%
- Activity (Jurkat [48]): 38.3%
- Activity (Jurkat [49]): 18.6%

- IC50 (MDA-MB-231 [15]): 9.3 µM
- IC50 (A549 [27]): 14.3 µM
- IC50 (P388 [28]): 2.1 µM
- IC50 (A2780 [29]): 2 µM
- IC50 (Jurkat [32]): 2.8 µM
- IC50 (HCT-8 [37]): 9.8 µM
SMILES: O=[N+]([O-])C(=C/c1cccc2ccccc12)/C(=C\c1cccc2ccccc12)[N+](=O)[O-]
- IC50 (PA-1 [6]): 3.6 µM
- IC50 (HGC-27 [18]): 9 µM

- IC50 (P388 [28]): 145 µM
- IC50 (A2780 [29]): 360 µM
- IC50 (Jurkat [32]): 172 µM
SMILES: O=C(O)c1ccc(/C=C(\C(=C/c2ccc(C(=O)O)c3ccccc23)[N+](=O)[O-])[N+](=O)[O-])c2ccccc12
- IC50 (PA-1 [6]): 129 µM
